This passage reports residual activity and inhibition results from ChEMBL document CHEMBL4507319 (2021).

In test [1] the test system is Mast/stem cell growth factor receptor Kit (Homo sapiens), P10721 [V559D]. The settings on record: Compound concentration 1000.0 nM.
For test [2], the target named is Cyclin-dependent kinase-like 2 (Homo sapiens) (UniProt Q92772). The note with it: Compound concentration 1000.0 nM.
Test [3] concerns the target Mitogen-activated protein kinase kinase kinase 4 (Homo sapiens) (UniProt Q9Y6R4). The note with it: Compound concentration 1000.0 nM.
The target of test [4] is BDNF/NT-3 growth factors receptor (Homo sapiens) (UniProt Q16620). The settings on record: Compound concentration 1000.0 nM.
In test [5] the target is Alpha-1B adrenergic receptor (Homo sapiens) (UniProt P35368). The settings on record: Compound concentration 10.0 uM.
Test [6] has as its system Hepatocyte growth factor receptor (Homo sapiens), P08581 [Y1235D]. The settings on record: Compound concentration 1000.0 nM.
Test [7] addresses 5-hydroxytryptamine receptor 7 (Homo sapiens) (UniProt P34969). The settings on record: Compound concentration 10.0 uM.
Test [8] addresses Serine/threonine-protein kinase Nek10 (Homo sapiens) (UniProt Q6ZWH5). The settings on record: Compound concentration 1000.0 nM.
The target of test [9] is Serine/threonine-protein kinase RIO2 (Homo sapiens) (UniProt Q9BVS4). The settings on record: Compound concentration 1000.0 nM.
For test [10], the target named is T1, Homeodomain-interacting protein kinase 4 (Homo sapiens) (UniProt Q8NE63).
T1 sequence (whole entry): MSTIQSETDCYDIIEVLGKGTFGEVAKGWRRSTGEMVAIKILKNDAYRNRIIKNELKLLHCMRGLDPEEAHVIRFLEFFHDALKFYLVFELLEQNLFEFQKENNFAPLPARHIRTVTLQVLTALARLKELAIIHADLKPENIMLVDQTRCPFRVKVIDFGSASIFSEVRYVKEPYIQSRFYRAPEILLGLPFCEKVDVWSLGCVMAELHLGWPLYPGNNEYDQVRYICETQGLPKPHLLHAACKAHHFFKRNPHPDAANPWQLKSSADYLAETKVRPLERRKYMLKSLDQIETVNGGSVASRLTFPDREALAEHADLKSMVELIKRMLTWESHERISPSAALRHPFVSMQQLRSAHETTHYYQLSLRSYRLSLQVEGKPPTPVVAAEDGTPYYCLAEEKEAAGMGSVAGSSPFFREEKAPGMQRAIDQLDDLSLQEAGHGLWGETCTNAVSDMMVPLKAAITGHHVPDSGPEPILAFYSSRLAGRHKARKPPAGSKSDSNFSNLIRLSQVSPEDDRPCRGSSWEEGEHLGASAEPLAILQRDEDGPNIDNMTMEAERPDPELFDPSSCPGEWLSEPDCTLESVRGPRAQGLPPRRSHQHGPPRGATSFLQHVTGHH
The settings on record: Compound concentration 1000.0 nM.

The target in test [11] is Delta-type opioid receptor (Homo sapiens) (UniProt P41143). The note with it: Compound concentration 10.0 uM.
For test [12], the target named is Phosphatidylinositol 5-phosphate 4-kinase type-2 gamma (Homo sapiens) (UniProt Q8TBX8). The note with it: Compound concentration 1000.0 nM.
Test [13] deals with Tyrosine-protein kinase BTK (Homo sapiens) (UniProt Q06187). The settings on record: Compound concentration 1000.0 nM.
Test [14] has as its target Platelet-derived growth factor receptor beta (Homo sapiens) (UniProt P09619). The note with it: Compound concentration 1000.0 nM.
Test [15] concerns Tyrosine-protein kinase ABL1 (Homo sapiens), P00519 [H396P]. The note with it: Compound concentration 1000.0 nM.
The target in test [16] is T2, Myotonin-protein kinase (Homo sapiens) (UniProt Q09013).
T2 sequence (whole entry): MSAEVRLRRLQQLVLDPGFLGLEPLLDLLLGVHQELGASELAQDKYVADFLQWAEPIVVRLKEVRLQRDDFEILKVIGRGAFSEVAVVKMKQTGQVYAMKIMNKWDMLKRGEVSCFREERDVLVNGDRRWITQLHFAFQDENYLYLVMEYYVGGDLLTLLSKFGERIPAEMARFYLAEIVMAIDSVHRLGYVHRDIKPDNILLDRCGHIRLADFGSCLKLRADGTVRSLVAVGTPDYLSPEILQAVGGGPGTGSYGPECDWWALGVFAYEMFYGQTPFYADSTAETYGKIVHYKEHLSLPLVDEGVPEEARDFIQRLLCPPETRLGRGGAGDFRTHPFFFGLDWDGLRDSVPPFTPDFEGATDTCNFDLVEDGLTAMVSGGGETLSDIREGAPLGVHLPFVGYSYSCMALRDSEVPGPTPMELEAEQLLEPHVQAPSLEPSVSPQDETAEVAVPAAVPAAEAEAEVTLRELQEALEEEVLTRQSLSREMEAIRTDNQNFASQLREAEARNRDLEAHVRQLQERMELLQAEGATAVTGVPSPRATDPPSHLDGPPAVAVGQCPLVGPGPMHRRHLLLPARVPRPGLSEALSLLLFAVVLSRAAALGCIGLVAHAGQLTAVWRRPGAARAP
The note with it: Compound concentration 1000.0 nM.

The target in test [17] is T3, Inhibitor of nuclear factor kappa-B kinase subunit beta (Homo sapiens) (UniProt O14920).
T3 sequence (whole entry): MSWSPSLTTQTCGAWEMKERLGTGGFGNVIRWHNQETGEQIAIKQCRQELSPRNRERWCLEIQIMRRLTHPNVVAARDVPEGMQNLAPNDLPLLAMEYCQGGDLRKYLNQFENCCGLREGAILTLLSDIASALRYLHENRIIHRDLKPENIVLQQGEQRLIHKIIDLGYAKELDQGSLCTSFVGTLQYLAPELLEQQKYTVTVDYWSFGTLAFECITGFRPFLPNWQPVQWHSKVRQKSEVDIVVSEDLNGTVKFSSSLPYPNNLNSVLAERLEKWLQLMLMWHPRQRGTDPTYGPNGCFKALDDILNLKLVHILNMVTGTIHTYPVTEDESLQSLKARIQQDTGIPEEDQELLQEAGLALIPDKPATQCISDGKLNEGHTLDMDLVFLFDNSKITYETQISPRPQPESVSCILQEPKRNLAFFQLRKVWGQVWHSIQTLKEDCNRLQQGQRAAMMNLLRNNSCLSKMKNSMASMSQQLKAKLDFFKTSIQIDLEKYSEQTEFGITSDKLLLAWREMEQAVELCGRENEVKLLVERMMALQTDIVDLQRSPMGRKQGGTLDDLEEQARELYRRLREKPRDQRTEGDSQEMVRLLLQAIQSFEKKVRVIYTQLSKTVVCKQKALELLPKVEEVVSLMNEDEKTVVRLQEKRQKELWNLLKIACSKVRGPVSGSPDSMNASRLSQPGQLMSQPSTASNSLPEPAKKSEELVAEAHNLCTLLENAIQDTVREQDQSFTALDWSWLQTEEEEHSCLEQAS
The note with it: Compound concentration 1000.0 nM.

The target in test [18] is Cyclin-dependent kinase 19 (Homo sapiens) (UniProt Q9BWU1). The note with it: Compound concentration 1000.0 nM.

Molecules are shown by their SMILES.

In general, inhibition refers to the change of the read-out against control, counted positive when it falls.

Chain of Serine/threonine-protein kinase RIO2 (Homo sapiens) (Q9BVS4 whole entry, looked up): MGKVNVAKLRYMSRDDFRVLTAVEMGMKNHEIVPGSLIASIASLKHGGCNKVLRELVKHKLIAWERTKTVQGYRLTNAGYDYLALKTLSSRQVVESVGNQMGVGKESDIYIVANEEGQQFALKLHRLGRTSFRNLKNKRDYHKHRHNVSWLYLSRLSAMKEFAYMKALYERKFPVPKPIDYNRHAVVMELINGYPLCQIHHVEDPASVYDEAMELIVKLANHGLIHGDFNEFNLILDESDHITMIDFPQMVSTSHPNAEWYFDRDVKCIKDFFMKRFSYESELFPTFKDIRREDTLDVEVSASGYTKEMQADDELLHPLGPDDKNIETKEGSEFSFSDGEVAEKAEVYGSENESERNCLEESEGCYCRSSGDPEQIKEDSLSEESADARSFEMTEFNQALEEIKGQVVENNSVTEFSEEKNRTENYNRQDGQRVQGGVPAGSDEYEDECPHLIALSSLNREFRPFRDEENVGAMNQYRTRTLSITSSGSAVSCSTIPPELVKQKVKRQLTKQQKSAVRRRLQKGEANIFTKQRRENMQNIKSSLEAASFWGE
Chain of BDNF/NT-3 growth factors receptor (Homo sapiens) (Q16620 32-822 limits assumed): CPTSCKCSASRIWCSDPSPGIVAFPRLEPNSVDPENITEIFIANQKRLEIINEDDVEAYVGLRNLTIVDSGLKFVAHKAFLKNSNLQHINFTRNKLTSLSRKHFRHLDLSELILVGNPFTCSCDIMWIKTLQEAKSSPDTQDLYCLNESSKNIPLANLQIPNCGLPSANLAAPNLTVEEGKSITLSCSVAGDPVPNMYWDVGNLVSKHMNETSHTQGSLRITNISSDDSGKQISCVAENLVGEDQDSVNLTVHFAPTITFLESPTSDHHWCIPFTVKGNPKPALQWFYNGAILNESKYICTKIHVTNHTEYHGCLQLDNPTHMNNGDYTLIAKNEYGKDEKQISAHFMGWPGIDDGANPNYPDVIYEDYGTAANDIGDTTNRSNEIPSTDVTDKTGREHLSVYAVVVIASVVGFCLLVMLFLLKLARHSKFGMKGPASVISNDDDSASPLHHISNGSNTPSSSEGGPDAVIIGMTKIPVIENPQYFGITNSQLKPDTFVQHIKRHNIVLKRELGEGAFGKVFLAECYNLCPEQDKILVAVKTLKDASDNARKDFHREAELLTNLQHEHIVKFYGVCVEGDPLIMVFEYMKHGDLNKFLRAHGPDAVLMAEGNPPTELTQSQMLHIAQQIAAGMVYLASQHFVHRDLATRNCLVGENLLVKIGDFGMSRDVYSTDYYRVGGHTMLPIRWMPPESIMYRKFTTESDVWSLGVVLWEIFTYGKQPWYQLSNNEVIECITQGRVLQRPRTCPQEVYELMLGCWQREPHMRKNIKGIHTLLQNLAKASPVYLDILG
Chain of Tyrosine-protein kinase BTK (Homo sapiens) (Q06187 whole entry): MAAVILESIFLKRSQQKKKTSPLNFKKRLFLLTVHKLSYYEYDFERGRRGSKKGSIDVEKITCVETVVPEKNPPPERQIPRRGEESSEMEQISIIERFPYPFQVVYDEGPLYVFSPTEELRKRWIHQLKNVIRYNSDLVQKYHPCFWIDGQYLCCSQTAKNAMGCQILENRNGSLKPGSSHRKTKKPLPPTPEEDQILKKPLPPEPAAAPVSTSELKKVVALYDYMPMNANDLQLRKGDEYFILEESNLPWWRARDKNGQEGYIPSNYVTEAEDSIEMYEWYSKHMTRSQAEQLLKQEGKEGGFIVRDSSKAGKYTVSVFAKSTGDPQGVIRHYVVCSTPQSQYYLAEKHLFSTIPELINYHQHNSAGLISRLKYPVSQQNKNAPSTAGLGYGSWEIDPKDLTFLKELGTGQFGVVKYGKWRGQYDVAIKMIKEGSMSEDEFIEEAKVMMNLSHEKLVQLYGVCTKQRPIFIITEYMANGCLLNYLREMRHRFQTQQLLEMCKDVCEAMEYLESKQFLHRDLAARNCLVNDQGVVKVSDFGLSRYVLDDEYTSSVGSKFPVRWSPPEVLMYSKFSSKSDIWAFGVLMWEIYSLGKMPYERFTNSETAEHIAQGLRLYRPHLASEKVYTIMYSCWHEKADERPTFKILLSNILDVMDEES
Chain of Phosphatidylinositol 5-phosphate 4-kinase type-2 gamma (Homo sapiens) (Q8TBX8 whole entry): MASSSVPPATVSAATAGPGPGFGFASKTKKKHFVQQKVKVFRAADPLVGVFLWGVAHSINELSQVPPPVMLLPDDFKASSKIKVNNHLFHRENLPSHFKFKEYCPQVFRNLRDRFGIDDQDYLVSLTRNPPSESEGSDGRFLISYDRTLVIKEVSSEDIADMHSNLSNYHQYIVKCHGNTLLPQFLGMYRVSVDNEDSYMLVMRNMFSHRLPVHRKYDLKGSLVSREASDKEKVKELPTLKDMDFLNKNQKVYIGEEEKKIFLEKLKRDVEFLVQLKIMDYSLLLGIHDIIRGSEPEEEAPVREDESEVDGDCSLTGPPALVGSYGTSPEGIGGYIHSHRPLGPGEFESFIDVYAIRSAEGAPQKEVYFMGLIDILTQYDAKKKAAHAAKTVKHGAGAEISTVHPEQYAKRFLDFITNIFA
Chain of Serine/threonine-protein kinase Nek10 (Homo sapiens) (Q6ZWH5 whole entry): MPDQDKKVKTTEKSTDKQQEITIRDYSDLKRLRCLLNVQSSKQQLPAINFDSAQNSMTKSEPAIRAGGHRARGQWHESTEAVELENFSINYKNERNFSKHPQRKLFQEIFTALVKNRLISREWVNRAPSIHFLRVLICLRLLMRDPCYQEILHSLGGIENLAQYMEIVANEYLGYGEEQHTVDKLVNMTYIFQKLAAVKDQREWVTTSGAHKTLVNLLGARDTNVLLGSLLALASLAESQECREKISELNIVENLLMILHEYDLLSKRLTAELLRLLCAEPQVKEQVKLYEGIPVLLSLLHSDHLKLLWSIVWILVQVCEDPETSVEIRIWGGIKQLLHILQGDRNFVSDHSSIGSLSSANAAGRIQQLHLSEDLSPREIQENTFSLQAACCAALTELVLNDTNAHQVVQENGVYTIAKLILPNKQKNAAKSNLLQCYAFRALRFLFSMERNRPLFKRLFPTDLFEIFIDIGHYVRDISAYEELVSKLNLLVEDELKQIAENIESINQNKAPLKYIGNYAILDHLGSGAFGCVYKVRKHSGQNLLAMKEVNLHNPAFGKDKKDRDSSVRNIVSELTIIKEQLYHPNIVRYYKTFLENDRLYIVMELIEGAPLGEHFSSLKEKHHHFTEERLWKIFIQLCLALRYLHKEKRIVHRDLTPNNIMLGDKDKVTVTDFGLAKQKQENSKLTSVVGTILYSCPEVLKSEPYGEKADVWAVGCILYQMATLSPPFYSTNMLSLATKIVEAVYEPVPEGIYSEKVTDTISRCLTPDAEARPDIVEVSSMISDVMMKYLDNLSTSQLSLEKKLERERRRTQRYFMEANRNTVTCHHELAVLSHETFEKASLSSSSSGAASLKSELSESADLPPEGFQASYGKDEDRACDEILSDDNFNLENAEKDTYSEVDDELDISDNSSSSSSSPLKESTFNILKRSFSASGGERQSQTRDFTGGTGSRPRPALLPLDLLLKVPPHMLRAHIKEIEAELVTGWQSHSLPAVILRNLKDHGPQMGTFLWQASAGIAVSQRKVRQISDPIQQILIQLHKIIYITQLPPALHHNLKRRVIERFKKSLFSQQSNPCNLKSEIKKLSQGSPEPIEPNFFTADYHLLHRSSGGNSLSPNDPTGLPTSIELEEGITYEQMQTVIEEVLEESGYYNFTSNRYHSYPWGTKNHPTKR
Chain of Delta-type opioid receptor (Homo sapiens) (P41143 whole entry): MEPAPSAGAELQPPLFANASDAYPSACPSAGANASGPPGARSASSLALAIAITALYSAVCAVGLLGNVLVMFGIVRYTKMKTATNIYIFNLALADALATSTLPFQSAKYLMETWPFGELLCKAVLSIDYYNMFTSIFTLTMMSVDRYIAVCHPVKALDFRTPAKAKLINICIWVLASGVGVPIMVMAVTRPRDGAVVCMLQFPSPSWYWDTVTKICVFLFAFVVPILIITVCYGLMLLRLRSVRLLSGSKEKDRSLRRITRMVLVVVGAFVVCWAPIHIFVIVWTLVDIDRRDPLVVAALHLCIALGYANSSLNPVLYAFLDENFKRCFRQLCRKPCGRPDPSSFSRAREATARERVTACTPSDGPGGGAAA
Chain of 5-hydroxytryptamine receptor 7 (Homo sapiens) (P34969 whole entry): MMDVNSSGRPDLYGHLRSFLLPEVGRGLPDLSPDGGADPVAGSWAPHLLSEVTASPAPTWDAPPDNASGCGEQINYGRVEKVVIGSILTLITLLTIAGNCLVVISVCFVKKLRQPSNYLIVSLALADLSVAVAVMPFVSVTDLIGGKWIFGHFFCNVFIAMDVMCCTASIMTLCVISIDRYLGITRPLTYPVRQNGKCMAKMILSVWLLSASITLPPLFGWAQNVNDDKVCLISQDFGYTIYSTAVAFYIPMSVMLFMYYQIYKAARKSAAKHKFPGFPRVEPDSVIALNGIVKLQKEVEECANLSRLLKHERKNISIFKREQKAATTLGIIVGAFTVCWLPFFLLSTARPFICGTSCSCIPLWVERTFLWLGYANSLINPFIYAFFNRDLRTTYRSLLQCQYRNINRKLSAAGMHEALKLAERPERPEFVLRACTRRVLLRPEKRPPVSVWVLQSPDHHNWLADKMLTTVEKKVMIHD
Chain of Cyclin-dependent kinase-like 2 (Homo sapiens) (Q92772 whole entry): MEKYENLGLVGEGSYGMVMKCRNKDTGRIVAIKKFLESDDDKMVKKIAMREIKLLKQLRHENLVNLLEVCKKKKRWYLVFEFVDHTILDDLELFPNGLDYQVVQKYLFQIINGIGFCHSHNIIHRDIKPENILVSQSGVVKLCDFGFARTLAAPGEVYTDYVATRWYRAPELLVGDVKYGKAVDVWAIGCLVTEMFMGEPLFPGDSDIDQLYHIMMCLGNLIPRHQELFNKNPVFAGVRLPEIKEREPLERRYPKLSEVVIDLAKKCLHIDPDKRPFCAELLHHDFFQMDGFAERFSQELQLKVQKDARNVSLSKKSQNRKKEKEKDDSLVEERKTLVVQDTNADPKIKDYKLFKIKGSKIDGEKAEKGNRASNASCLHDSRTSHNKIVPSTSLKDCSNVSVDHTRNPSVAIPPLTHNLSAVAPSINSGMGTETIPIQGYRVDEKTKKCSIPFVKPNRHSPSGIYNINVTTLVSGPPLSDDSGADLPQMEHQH

Turning to `CC1=C(C#N)C(c2ccc3c(c2)c(NC(=O)c2ccccc2C)nn3C)C(C#N)=C(C)N1` [BAY-974], the residual activity in test [1] is 100%; in [2], 100%; in test [3] it was 84%; in [4] it was 72%; in [6], 74%; in test [8] it was 90%. The residual activity is 65% in [9]; 80% in [10]; 92% in test [12]; 85% in [13]; 94% in [14]; 82% in test [15]. Moreover, the residual activity was 99% in [16], 95% in [17] and 74% in test [18]. Moreover, the values for the inhibition in test [5], in [7] and in test [11] were -4.61%, 6.72% and 17.7%, respectively.

Regarding `CCc1ccccc1C(=O)Nc1n[nH]c2c(C)c(F)c(C3C(C#N)=C(C)N(C)C(C)=C3C#N)cc12` [BAY-3827], the residual activity in test [1] was 83%; in [2], 94%; in test [3], 72%; in test [4], 100%; in test [6] it was 16%; in test [8], 100%. Moreover, the residual activity in test [9] was 93%; in test [10] it was 100%; in test [12] it was 77%; in [13] it was 99%; in test [14], 82%; in test [15] it was 97%. In addition, the residual activity in [16] was 100%; in [17] it was 94%; in test [18], 100%. The inhibition in test [5] was -9.38%; in [7], 13.9%; in test [11], 20.5%.
